From patent EP1543832A2, “Use of trans-4[4-(3-chloro-4-methoxy-benzylamino) benzothieno[2,3-d]pyrimidin-2-yl]-cyclohexanecarboxylic acid in the treatment of extrapyramidal movement disorders” (MERCK PATENT GmbH, priority 2003, dated 2005)
Structures can show the parent of a compound that is named as a salt.

Key:
[1] = system: idiopathic Parkinson's disease; test: Double-blind add-on study in idiopathic Parkinson's disease (UPDRS); assay type: in vivo, patients; details: add-on 2.5 to 10 mg b.i.d. versus placebo
Text: A typical study to investigate the efficacy of the compounds according to the invention in the treatment of idiopathic Parkinson's disease is described in the following. 180 patients of either sex with idiopathic Parkinson's disease participate in a double-blind study. The main inclusion criteria are Hoehn & Yahr stage ≥ 2.0 (Hoehn H.M. et al, Neurology 1967; 17: 427-442), aged 50-80 years, symptom duration of at least 5 years. Trans-4-[4-(3-chloro-4-methoxybenzylamino)-benzothieno-[2,3-d]pyrimidin-2-yl]cyclohexanecarboxylic acid or placebo is administered as "add on" to the conventional Parkinson treatment, which is maintained unchanged during the whole study. The dose of blinded medication is titrated over a period of 4 weeks in a range from 2.5 to 10 mg b.i.d. Then the medication is kept constant for 1 week. Before the start of titration, at the end of the treatment period and 2 weeks after the end of the tiration period an assessment is performed in each patients using the unified Parkinson's disease rating scale (UPDRS part I to V according to S. Fahn et al., in: Recent developments in Parkinson's disease, vol. 2, MacMillan health information 1987, 153-163). […]

MSA patients = test: Placebo-controlled cross-over add-on study in MSA patients (UPDRS); assay type: in vivo; details: add-on 2.5 to 20 mg b.i.d. versus placebo
Text: A typical study to investigate the efficacy of the compounds according to the invention in MSA patients encompasses 30 patients of either sex with a symptom duration of at least 5 years and a significant reduction of central dopamine receptors in positron emission tomography (PET) scan. The study design is similar to that described above for Parkinson's disease. Trans-4-[4-(3-chloro-4-methoxybenzylamino)-benzothieno-[2,3-d]pyrimidin-2-yl]cyclohexanecarboxylic acid sodium or ethanolamine salt or placebo is titrated as "add on" to the conventional treatment (dose range 2.5 to 20 mg b.i.d.). Before the start of titration and at the end of the treatment period a complete UPDRS assessment is performed in each patient (primary outcome measure). After a 2-week wash-out period the two study arms are crossed over and the protocol is repeated.

[2] = system: advanced idiopathic Parkinson's disease complicated by "peak-dose" dyskinesia; test: Double-blind cross-over study, peak-dose dyskinesia after l-dopa challenge in advanced idiopathic Parkinson's disease; assay type: in vivo, patients; details: first hour in the "on" state after l-dopa challenge; add-on 2.5 to 10 mg b.i.d. versus placebo
Text: A typical study to investigate the efficacy of the compounds according to the invention for adverse effects in Parkinson's disease is described in the following. 40 patients of either sex with advanced idiopathic Parkinson's disease complicated by "peak-dose" dyskinesia participate in a double-blind, cross-over study. The main inclusion criteria are Hoehn & Yahr stage ≥ 2.5 (lit.: Hoehn H.M. et al, Neurology 1967; 17: 427-442), aged 40-75 years, symptom duration of at least 5 years, and a I-dopa treatment duration of at least 3 years. trans-4-[4-(3-chloro-4-methoxybenzylamino)-benzothieno-[2,3-d]pyrimidin-2-yl]cyclohexanecarboxylic acid sodium or ethanolamine salt or placebo is administered as "add on" to the conventional Parkinson treatment; which is maintained unchanged during the whole study. The dose of blinded medication is titrated over a period of 3 weeks in a range from 2.5 to 10 mg b.i.d. Then the medication is kept constant for 1 week. Before the start of titration and at the end of the treatment period a I-dopa challenge is performed according to P. Damier et al. (Movement Disord,1999, 14 (Suppl. 1), 54-59) using video recording. The main outcome measure of the protocol is the mean score for dyskinesia during the first hour in the "on" state after I-dopa challenge. […]

tardive dyskinesia = test: Double-blind cross-over add-on study in tardive dyskinesia (AIMS); assay type: in vivo, schizophrenic (DSM-III-R) inpatients; details: add-on to antipsychotic treatment, 2.5 to 20 mg b.i.d., compared with placebo period
Text: Tardive dyskinesia is a common adverse effect of long-term treatment with neuroleptics. A typical study to investigate the efficacy of the compounds according to the invention in tardive dyskinesia is described in the following. 32 schizophrenic (DSM-III-R) inpatients aged 25 - 60 years on long-term stable antipsychotic treatment (duration of at least 5 years) entered the study. Trans-4-[4-(3-chloro-4-methoxybenzylamino)-benzothieno-[2,3-d]pyrimidin-2-yl]cyclohexanecarboxylic acid sodium or ethanolamine salt or placebo is administered as "add on" to the antipsychotic treatment, which is kept constant during the whole study. The dose of blinded medication is titrated over a period of 3 weeks in a range from 2.5 to 20 mg b.i.d. Then the medication is maintained under double-blind conditions for 2 weeks. After a 2-week wash-out period, the test drugs are crossed over. Assessments of tardive dyskinesia by means of the Abnormal Involuntary Movement Scale (AIMS, see obove) and of Parkinsonian extrapyramidal side effects (UPDRS, see above) are made pretreatment and posttreatment.

COc1ccc(CNc2nc([C@H]3CC[C@H](C(=O)O)CC3)nc3sc4ccccc4c23)cc1Cl [trans-4-[4-(3-chloro-4-methoxybenzylamino)-benzothieno-[2,3-d]pyrimidin-2-yl]cyclohexanecarboxylic acid sodium or ethanolamine salt]
UPDRS scores [1]: significant clinical improvement
UPDRS (MSA patients): significant clinical improvement
mean dyskinesia scores [2]: significant clinical improvement
AIMS scores (tardive dyskinesia): significantly lower than during placebo period
